Tested on: 677734-321-R-J1-PDC complex spheroid viability
Experiment: Anticancer human tumor 677734-321-R-J1-PDC patient-derived soft tissue sarcoma cell line growth inhibition [POLQ]
Conditions: for IC50: curve of first compound; for viability, T/C: stronger effect = lower value
Summary of the method: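 Complex spheroid viability model combining PDC tumour cells with endothelial (HUVEC) and MSC stromal cells. Novobiocin, ART-558 or RP6685 were tested singly and in combination with standard and investigational anticancer drugs. Each was titrated in half-log steps from near clinical Cmax, or from 10 microM where Cmax was unknown.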

[1] = second compound 0.0316 µM, first compound 0.0316 µM
[2] = second compound 0.0316 µM, first compound 0.1 µM
[3] = second compound 0.0316 µM, first compound 0.316 µM
[4] = second compound 0.0316 µM, first compound 1 µM
[5] = second compound 0.1 µM, first compound 0.0316 µM
[6] = second compound 0.1 µM, first compound 0.1 µM
[7] = second compound 0.1 µM, first compound 0.316 µM
[8] = second compound 0.1 µM, first compound 1 µM
[9] = second compound 0.316 µM, first compound 0.0316 µM
[10] = second compound 0.316 µM, first compound 0.1 µM
[11] = second compound 0.316 µM, first compound 0.316 µM
[12] = second compound 0.316 µM, first compound 1 µM
[13] = second compound 1 µM, first compound 0.0316 µM
[14] = second compound 1 µM, first compound 0.1 µM
[15] = second compound 1 µM, first compound 0.316 µM
[16] = second compound 1 µM, first compound 1 µM
[17] = second compound 3.16 µM, first compound 0.0316 µM
[18] = second compound 3.16 µM, first compound 0.1 µM
[19] = second compound 3.16 µM, first compound 0.316 µM
[20] = second compound 3.16 µM, first compound 1 µM
[21] = second compound 10 µM, first compound 0.0316 µM
[22] = second compound 10 µM, first compound 0.1 µM
[23] = second compound 10 µM, first compound 0.316 µM
[24] = second compound 10 µM, first compound 1 µM
[25] = second compound 0.0316 µM, first compound 3.16 µM
[26] = second compound 0.0316 µM, first compound 10 µM
[27] = second compound 0.1 µM, first compound 3.16 µM
[28] = second compound 0.1 µM, first compound 10 µM
[29] = second compound 0.316 µM, first compound 3.16 µM
[30] = second compound 0.316 µM, first compound 10 µM
[31] = second compound 1 µM, first compound 3.16 µM
[32] = second compound 1 µM, first compound 10 µM
[33] = second compound 3.16 µM, first compound 3.16 µM
[34] = second compound 3.16 µM, first compound 10 µM
[35] = second compound 10 µM, first compound 3.16 µM
[36] = second compound 10 µM, first compound 10 µM
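Further: spheroids exposed to compounds for one week.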
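Wherever viability, T/C is given: 100% = vehicle DMSO treated spheroids.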

## C=CCn1c(=O)c2cnc(Nc3ccc(N4CCN(C)CC4)cc3)nc2n1-c1cccc(C(C)(C)O)n1 + Cc1cccc(N(C)C(=O)C2C(O)CCN2c2nc(C)cc(C(F)(F)F)c2C#N)c1
Second compound 0.0316 µM
  IC50: 0.627 µM
Second compound 0.1 µM
  IC50: 0.478 µM
Second compound 0.316 µM
  IC50: 0.661 µM
Second compound 1 µM
  IC50: 0.401 µM
Second compound 3.16 µM
  IC50: 0.537 µM
Second compound 10 µM
  IC50: 0.493 µM
Second compound 0.0316 µM, first compound 0.00316 µM
  viability, T/C: 102%
Second compound 0.0316 µM, first compound 0.01 µM
  viability, T/C: 102%
[1]
  viability, T/C: 102%
[2]
  viability, T/C: 90.6%
[3]
  viability, T/C: 81%
[4]
  viability, T/C: 29.7%
Second compound 0.1 µM, first compound 0.00316 µM
  viability, T/C: 88.6%
Second compound 0.1 µM, first compound 0.01 µM
  viability, T/C: 92.4%
[5]
  viability, T/C: 106%
[6]
  viability, T/C: 78.4%
[7]
  viability, T/C: 67.4%
[8]
  viability, T/C: 21.7%
Second compound 0.316 µM, first compound 0.00316 µM
  viability, T/C: 96.7%
Second compound 0.316 µM, first compound 0.01 µM
  viability, T/C: 95.3%
[9]
  viability, T/C: 90.9%
[10]
  viability, T/C: 85.6%
[11]
  viability, T/C: 79%
[12]
  viability, T/C: 34.4%
Second compound 1 µM, first compound 0.00316 µM
  viability, T/C: 117%
Second compound 1 µM, first compound 0.01 µM
  viability, T/C: 93.7%
[13]
  viability, T/C: 98.9%
[14]
  viability, T/C: 85%
[15]
  viability, T/C: 51.4%
[16]
  viability, T/C: 30.2%
Second compound 3.16 µM, first compound 0.00316 µM
  viability, T/C: 107%
Second compound 3.16 µM, first compound 0.01 µM
  viability, T/C: 87.7%
[17]
  viability, T/C: 76.3%
[18]
  viability, T/C: 87.8%
[19]
  viability, T/C: 66.8%
[20]
  viability, T/C: 31.9%
Second compound 10 µM, first compound 0.00316 µM
  viability, T/C: 89.6%
Second compound 10 µM, first compound 0.01 µM
  viability, T/C: 82.6%
[21]
  viability, T/C: 95.3%
[22]
  viability, T/C: 82.3%
[23]
  viability, T/C: 70%
[24]
  viability, T/C: 18.6%

## CC1COCCN1c1cc(C2(S(C)(=N)=O)CC2)nc(-c2ccnc3[nH]ccc23)n1 (stereo unspecified) + Cc1cccc(N(C)C(=O)C2C(O)CCN2c2nc(C)cc(C(F)(F)F)c2C#N)c1
Second compound 0.0316 µM
  IC50: 4.03 µM
Second compound 0.1 µM
  IC50: 3.86 µM
Second compound 0.316 µM
  IC50: 3.91 µM
Second compound 1 µM
  IC50: 3.79 µM
Second compound 3.16 µM
  IC50: 3.1 µM
Second compound 10 µM
  IC50: 3.03 µM
[1]
  viability, T/C: 106%
[2]
  viability, T/C: 105%
[3]
  viability, T/C: 104%
[4]
  viability, T/C: 91%
[25]
  viability, T/C: 57%
[26]
  viability, T/C: 24.2%
[5]
  viability, T/C: 106%
[6]
  viability, T/C: 110%
[7]
  viability, T/C: 96.5%
[8]
  viability, T/C: 92.9%
[27]
  viability, T/C: 53.6%
[28]
  viability, T/C: 28.6%
[9]
  viability, T/C: 117%
[10]
  viability, T/C: 108%
[11]
  viability, T/C: 100%
[12]
  viability, T/C: 90.4%
[29]
  viability, T/C: 54.3%
[30]
  viability, T/C: 22%
[13]
  viability, T/C: 109%
[14]
  viability, T/C: 102%
[15]
  viability, T/C: 98.5%
[16]
  viability, T/C: 98.3%
[31]
  viability, T/C: 54.5%
[32]
  viability, T/C: 25.4%
[17]
  viability, T/C: 104%
[18]
  viability, T/C: 103%
[19]
  viability, T/C: 99.7%
[20]
  viability, T/C: 90.6%
[33]
  viability, T/C: 49.2%
[34]
  viability, T/C: 37.8%
[21]
  viability, T/C: 102%
[22]
  viability, T/C: 96.5%
[23]
  viability, T/C: 93.1%
[24]
  viability, T/C: 87%
[35]
  viability, T/C: 48.3%
[36]
  viability, T/C: 26%

## CCCS(=O)(=O)Nc1ccc(F)c(C(=O)c2c[nH]c3ncc(-c4ccc(Cl)cc4)cc23)c1F + Cc1cccc(N(C)C(=O)C2C(O)CCN2c2nc(C)cc(C(F)(F)F)c2C#N)c1
Second compound 0.0316 µM
  IC50: 4.25 µM
Second compound 0.1 µM
  IC50: 3.82 µM
Second compound 0.316 µM
  IC50: 3.99 µM
Second compound 1 µM
  IC50: 3.12 µM
Second compound 3.16 µM
  IC50: 2.92 µM
Second compound 10 µM
  IC50: 2 µM
[1]
  viability, T/C: 104%
[2]
  viability, T/C: 105%
[3]
  viability, T/C: 108%
[4]
  viability, T/C: 99.8%
[25]
  viability, T/C: 65.3%
[26]
  viability, T/C: 5.8%
[5]
  viability, T/C: 94.5%
[6]
  viability, T/C: 87.3%
[7]
  viability, T/C: 100%
[8]
  viability, T/C: 86.4%
[27]
  viability, T/C: 59.1%
[28]
  viability, T/C: 4.58%
[9]
  viability, T/C: 90.7%
[10]
  viability, T/C: 101%
[11]
  viability, T/C: 89.1%
[12]
  viability, T/C: 96%
[29]
  viability, T/C: 61.9%
[30]
  viability, T/C: 3.41%
[13]
  viability, T/C: 101%
[14]
  viability, T/C: 93.2%
[15]
  viability, T/C: 79.6%
[16]
  viability, T/C: 108%
[31]
  viability, T/C: 49.4%
[32]
  viability, T/C: 2.83%
[17]
  viability, T/C: 94.1%
[18]
  viability, T/C: 84.6%
[19]
  viability, T/C: 94%
[20]
  viability, T/C: 98.4%
[33]
  viability, T/C: 46.8%
[34]
  viability, T/C: 2.44%
[21]
  viability, T/C: 80.1%
[22]
  viability, T/C: 71.7%
[23]
  viability, T/C: 80.6%
[24]
  viability, T/C: 83.3%
[35]
  viability, T/C: 30.8%
[36]
  viability, T/C: 0.79%
